In brackets after ≈: the same amount, converted by molar mass.
Key:
[1] = tested on: Enterococcus faecium; test: Antibacterial activity against vancomycin A resistant Enterococcus faecium isolate SR-7940 by broth dilution method; format: functional; settings: isolate SR7940
[2] = tested on: Staphylococcus aureus; test: Inhibition of lipid intermediate formation in methicillin susceptible Staphylococcus aureus RN4220 assessed as reduction in N-acetyl-D-[1-3H]glucosamine incorporation in crude assay system; format: functional
[3] = tested on: Staphylococcus aureus; test: Antibacterial activity against vancomycin A resistant Staphylococcus aureus isolate HIP11714 by broth dilution method; format: functional
[4] = tested on: Staphylococcus aureus; test: Antibacterial activity against methicillin susceptible Staphylococcus aureus RN4220 in presence of 8 ug/mL Nalpha,Nepsilon-diacetyl-L-Lys-D-Ala-D-Ala by broth dilution method; format: functional
[5] = Inhibition of methicillin susceptible Staphylococcus aureus RN4220 transglycosylase assessed as inhibition of peptidoglycan formation by crude assay
[6] = tested on: Staphylococcus aureus; test: Antibacterial activity against methicillin susceptible Staphylococcus aureus RN4220 in presence of 64 ug/mL Nalpha,Nepsilon-diacetyl-L-Lys-D-Ala-D-Lactate by broth dilution method; format: functional
[7] = tested on: Enterococcus faecalis; test: Antibacterial activity against vancomycin A resistant Enterococcus faecalis isolate SR-7914 by broth dilution method; format: functional; settings: isolate SR7914
[8] = tested on: Staphylococcus aureus; test: Antibacterial activity against methicillin susceptible Staphylococcus aureus RN4220 in presence of 64 ug/mL Nalpha,Nepsilon-diacetyl-L-Lys-D-Ala-D-Ala by broth dilution method; format: functional
[9] = tested on: Enterococcus faecalis; test: Antibacterial activity against vancomycin B resistant Enterococcus faecalis isolate SR-23630 by broth dilution method; format: functional; settings: isolate SR23630
[10] = tested on: Enterococcus faecalis; test: Antibacterial activity against vancomycin susceptible Enterococcus faecalis isolate SR1004 by broth dilution method; format: functional
[11] = tested on: Staphylococcus aureus; test: Antibacterial activity against methicillin susceptible Staphylococcus aureus RN4220 in presence of 8 ug/mL Nalpha,Nepsilon-diacetyl-L-Lys-D-Ala-D-Lactate by broth dilution method; format: functional
[12] = tested on: Staphylococcus aureus; test: Inhibition of lipid intermediate formation in vancomycin A resistant Staphylococcus aureus isolate HIP11714 assessed as reduction in N-acetyl-D-[1-3H]glucosamine incorporation in crude assay system; format: functional
[13] = tested on: Staphylococcus aureus; test: Antibacterial activity against vancomycin intermediate Staphylococcus aureus ATCC 700787 by broth dilution method; format: functional
[14] = tested on: Staphylococcus aureus; test: Antibacterial activity against methicillin susceptible Staphylococcus aureus RN4220 by broth dilution method; format: functional
[15] = tested on: Enterococcus faecium; test: Antibacterial activity against vancomycin sensitive Enterococcus faecium isolate SR-16972 by broth dilution method; format: functional; settings: isolate SR16972
[16] = tested on: Staphylococcus aureus; test: Antibacterial activity against methicillin susceptible Staphylococcus aureus Smith by broth dilution method; format: functional
[17] = tested on: Staphylococcus aureus; test: Antibacterial activity against methicillin resistant Staphylococcus aureus SR-3637 by broth dilution method; format: functional; settings: SR3637
[18] = tested on: Enterococcus faecium; test: Antibacterial activity against constitutively vancomycin B resistant Enterococcus faecium isolate SRM1101 by broth dilution method; format: functional
[19] = Inhibition of vancomycin A resistant Staphylococcus aureus isolate HIP11714 transglycosylase assessed as inhibition of peptidoglycan formation by crude assay
[20] = tested on: Enterococcus faecium; test: Antibacterial activity against vancomycin B resistant Enterococcus faecium isolate SR-23598 by broth dilution method; format: functional; settings: isolate SR23598

Structure (SMILES)	MIC [1] [µg/mL]	IC50 [2] [µg/mL]	MIC [3] [µg/mL]	MIC [4] [µg/mL]	IC50 [5] [µg/mL]	MIC [6] [µg/mL]	MIC [7] [µg/mL]	MIC [8] [µg/mL]	MIC [9] [µg/mL]	MIC [10] [µg/mL]	MIC [11] [µg/mL]	IC50 [12] [µg/mL]	MIC [13] [µg/mL]	MIC [14] [µg/mL]	MIC [15] [µg/mL]	MIC [16] [µg/mL]	MIC [17] [µg/mL]	MIC [18] [µg/mL]	IC50 [19] [µg/mL]	MIC [20] [µg/mL]
CN[C@H](CC(C)C)C(=O)N[C@H]1C(=O)N[C@@H](CC(N)=O)C(=O)N[C@H]2C(=O)N[C@H]3C(=O)N[C@H](C(=O)N[C@H](C(=O)O)c4cc(O)cc(O)c4-c4cc3ccc4O)[C@H](O)c3ccc(c(Cl)c3)Oc3cc2cc(c3O[C@H]2O[C@@H](CO)[C@H](O)[C@@H](O)[C@@H]2O[C@@H]2C[C@@](C)(NCc3cccc(NC(=O)c4ccc(C)c(OCc5ccccc5)c4[N+](=O)[O-])c3)[C@@H](O)[C@@H](C)O2)Oc2ccc(cc2Cl)[C@H]1O	1 (≈ 0.548 µM)	32 (≈ 17.5 µM)	4 (≈ 2.19 µM)	0.125	4.2 (≈ 2.3 µM)	0.0625	2 (≈ 1.1 µM)	0.5	0.5 (≈ 0.274 µM)	0.25 (≈ 0.137 µM)	0.125	76 (≈ 41.7 µM)	2 (≈ 1.1 µM)	0.125 (≈ 0.0685 µM)	0.25 (≈ 0.137 µM)	0.125 (≈ 0.0685 µM)	0.25 (≈ 0.137 µM)	4 (≈ 2.19 µM)	36 (≈ 19.7 µM)	0.25 (≈ 0.137 µM)
Cc1ccc(C(=O)Nc2cccc(CN[C@]3(C)C[C@@H](O[C@@H]4[C@@H](Oc5c6cc7cc5Oc5ccc(cc5Cl)[C@@H](O)[C@@H](N)C(=O)N[C@@H](CC(N)=O)C(=O)N[C@H]7C(=O)N[C@H]5C(=O)N[C@H](C(=O)N[C@H](C(=O)O)c7cc(O)cc(O)c7-c7cc5ccc7O)[C@H](O)c5ccc(c(Cl)c5)O6)O[C@@H](CO)[C@H](O)[C@H]4O)O[C@H](C)[C@@H]3O)c2)c([N+](=O)[O-])c1OCc1ccccc1	8 (≈ 4.72 µM)	140 (≈ 82.5 µM)	16 (≈ 9.43 µM)	2	11 (≈ 6.48 µM)	1	8 (≈ 4.72 µM)	2	4 (≈ 2.36 µM)	2 (≈ 1.18 µM)	2	93 (≈ 54.8 µM)	4 (≈ 2.36 µM)	2 (≈ 1.18 µM)	2 (≈ 1.18 µM)	2 (≈ 1.18 µM)	2 (≈ 1.18 µM)	16 (≈ 9.43 µM)	53 (≈ 31.2 µM)	4 (≈ 2.36 µM)
C[C@H]1O[C@H](O[C@@H]2[C@@H](Oc3c4cc5cc3Oc3ccc(cc3Cl)[C@@H](O)[C@@H](N)C(=O)N[C@@H](CC(N)=O)C(=O)N[C@H]5C(=O)N[C@H]3C(=O)N[C@H](C(=O)N[C@H](C(=O)O)c5cc(O)cc(O)c5-c5cc3ccc5O)[C@H](O)c3ccc(c(Cl)c3)O4)O[C@@H](CO)[C@H](O)[C@H]2O)C[C@@](C)(N)[C@H]1O	> 64	3900 (≈ 2950 µM)	> 64		130 (≈ 98.3 µM)		> 64		> 64	> 64		3100 (≈ 2340 µM)	> 64	> 64	> 64	> 64	> 64	> 64	920 (≈ 696 µM)	> 64
CN[C@H](CC(C)C)C(=O)N[C@H]1C(=O)N[C@@H](CC(N)=O)C(=O)N[C@H]2C(=O)N[C@H]3C(=O)N[C@H](C(=O)N[C@H](C(=O)O)c4cc(O)cc(O)c4-c4cc3ccc4O)[C@H](O)c3ccc(c(Cl)c3)Oc3cc2cc(c3O[C@@H]2O[C@H](CO)[C@@H](O)[C@H](O)[C@H]2O[C@H]2C[C@](C)(N)[C@H](O)[C@H](C)O2)Oc2ccc(cc2Cl)[C@H]1O [VANCOMYCIN]	> 64	180 (≈ 124 µM)	> 64		4.5 (≈ 3.11 µM)		> 64	16	32 (≈ 22.1 µM)	2 (≈ 1.38 µM)		2300 (≈ 1590 µM)	8 (≈ 5.52 µM)					> 64	85 (≈ 58.7 µM)	> 64

— ChEMBL document CHEMBL1212788, “Mode of action of Van-M-02, a novel glycopeptide inhibitor of peptidoglycan synthesis, in vancomycin-resistant bacteria” (Antimicrob Agents Chemother, 2010)
